Reference: PubChem BioAssay AID330 (DTP/NCI, 2004)
“And” between values parts separate entries of the source, which are not always exact repeats. Identical values can stand only once. Inconclusive results and toxic doses are left out. How the source made its calls: active means survival T/C of 150% or more; inactive means T/C below 125% in these data.

System: P388 leukemia ip, CD2F1 mice, survival T/C
Assay: NCI In Vivo Anticancer Drug Screen. Data for tumor model P388 Leukemia (intraperitoneal) in CD2F1 (CDF1) mice
Details: endpoint: median survival time, higher = longer survival
How it was run: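 Mice carrying the transplanted tumor received test compound or vehicle. Survival was recorded in each group, and the value is the treated-group measurement divided by that of the vehicle-treated control group.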

[1] = dose: 25.0 mg/kg/injection, schedule: Q04DX003 (ip), vehicle: saline
[2] = dose: 50.0 mg/kg/injection, schedule: Q04DX003 (ip), vehicle: saline
[3] = dose: 200.0 mg/kg/injection, schedule: Q04DX003 (ip), vehicle: saline
[4] = dose: 50.0 mg/kg/injection, schedule: Q01DX009 (ip), vehicle: Klucel (hydroxypropylcellulose) (HPC)

Measured: T/C

S=C1NCCCN1
inactive: [1] 99 % of control | [2] 104 % of control | dose: 100.0 mg/kg/injection, schedule: Q04DX003 (ip), vehicle: saline 100 % of control | [3] 100 % of control

CCN1CC2C3CCC(C)(O3)C2C1 (stereo not given)
inactive: dose: 50.0 mg/kg/injection, schedule: Q01DX005 (ip), vehicle: saline 99 % of control | dose: 100.0 mg/kg/injection, schedule: Q01DX005 (ip), vehicle: saline 98 % of control | dose: 200.0 mg/kg/injection, schedule: Q01DX005 (ip), vehicle: saline 101 % of control

CC1(C)c2ccccc2-c2nc3ccccc3nc2C1O (stereo not given)
inactive: dose: 100.0 mg/kg/injection, schedule: Q04DX003 (ip), vehicle: Klucel (hydroxypropylcellulose) (HPC) 110 % of control | dose: 200.0 mg/kg/injection, schedule: Q04DX003 (ip), vehicle: Klucel (hydroxypropylcellulose) (HPC) 99 % of control | dose: 400.0 mg/kg/injection, schedule: Q04DX003 (ip), vehicle: Klucel (hydroxypropylcellulose) (HPC) 112 % of control

CN(C)/C=C/c1ccc([N+](=O)[O-])o1
inactive: dose: 50.0 mg/kg/injection, schedule: Q01DX009 (ip), vehicle: suspension in saline 100 % of control | dose: 100.0 mg/kg/injection, schedule: Q01DX009 (ip), vehicle: suspension in saline 104 % of control | dose: 200.0 mg/kg/injection, schedule: Q01DX009 (ip), vehicle: suspension in saline 118 % of control

Cc1ccc(C(=O)OC(C(=O)O)C(OC(=O)c2ccc(C)cc2)C(=O)O)cc1 (stereo not given) (tested in a mixture with another compound)
inactive: dose: 5.25 mg/kg/injection, schedule: Q01DX005 (ip), vehicle: Klucel (hydroxypropylcellulose) (HPC) 105 % of control | dose: 10.5 mg/kg/injection, schedule: Q01DX005 (ip), vehicle: Klucel (hydroxypropylcellulose) (HPC) 107 % of control | dose: 21.0 mg/kg/injection, schedule: Q01DX005 (ip), vehicle: Klucel (hydroxypropylcellulose) (HPC) 105 % of control | dose: 42.0 mg/kg/injection, schedule: Q01DX005 (ip), vehicle: Klucel (hydroxypropylcellulose) (HPC) 100 % of control

CCCC/[N+]([O-])=N/O
inactive: dose: 3.0 mg/kg/injection, schedule: Q01DX005 (ip), vehicle: Klucel (hydroxypropylcellulose) (HPC) 103 % of control | dose: 6.0 mg/kg/injection, schedule: Q01DX005 (ip), vehicle: Klucel (hydroxypropylcellulose) (HPC) 95 % of control | dose: 12.0 mg/kg/injection, schedule: Q01DX005 (ip), vehicle: Klucel (hydroxypropylcellulose) (HPC) 100 % of control | dose: 24.0 mg/kg/injection, schedule: Q01DX005 (ip), vehicle: Klucel (hydroxypropylcellulose) (HPC) 101 % of control

O=C(O)CC(=O)C(=O)O
inactive: dose: 100.0 mg/kg/injection, schedule: Q04DX002 (ip), vehicle: saline with Tween-80 98 % of control | dose: 100.0 mg/kg/injection, schedule: Q04DX002 (ip), vehicle: saline 101 % of control | dose: 200.0 mg/kg/injection, schedule: Q04DX002 (ip), vehicle: saline with Tween-80 112 % of control | dose: 200.0 mg/kg/injection, schedule: Q04DX002 (ip), vehicle: saline 97 % of control | dose: 400.0 mg/kg/injection, schedule: Q04DX002 (ip), vehicle: saline with Tween-80 112 % of control

Cc1cc2c(=O)cc(-c3ccccc3)oc2c(C(N)=O)c1C
inactive: dose: 60.0 mg/kg/injection, schedule: Q01DX005 (ip), vehicle: saline with Tween-80 99 % of control | dose: 120.0 mg/kg/injection, schedule: Q01DX005 (ip), vehicle: saline with Tween-80 98 % of control | dose: 240.0 mg/kg/injection, schedule: Q01DX005 (ip), vehicle: saline with Tween-80 93 % of control

CC1C=CC(C)C2C(=O)C3C(C)C=CC(C)C3C(=O)C12 (stereo not given)
inactive: dose: 50.0 mg/kg/injection, schedule: Q01DX005 (ip), vehicle: Klucel (hydroxypropylcellulose) (HPC) 93 % of control | dose: 100.0 mg/kg/injection, schedule: Q01DX005 (ip), vehicle: Klucel (hydroxypropylcellulose) (HPC) 97 % of control | dose: 200.0 mg/kg/injection, schedule: Q01DX005 (ip), vehicle: Klucel (hydroxypropylcellulose) (HPC) 87 % of control

CNc1nc2c(N)ncnc2n1C1OC(CO)C(O)C1O (stereo not given)
inactive: dose: 6.25 mg/kg/injection, schedule: Q01DX009 (ip), vehicle: suspension in saline 94 % of control | dose: 12.5 mg/kg/injection, schedule: Q01DX009 (ip), vehicle: suspension in saline 112 % of control

OCCc1nccnn1
inactive: dose: 12.5 mg/kg/injection, schedule: Q04DX003 (ip), vehicle: saline 104 % of control | [1] 107 % of control | [2] 104 % of control | [3] 87 % of control | dose: 400.0 mg/kg/injection, schedule: Q04DX003 (ip), vehicle: saline 86 % of control

O=C(NC(C(=O)O)c1ccc(CCl)cc1)c1ccccc1 (stereo not given)
inactive: dose: 50.0 mg/kg/injection, schedule: Q01DX005 (ip), vehicle: saline with Tween-80 107 % of control | dose: 100.0 mg/kg/injection, schedule: Q01DX005 (ip), vehicle: saline with Tween-80 105 % of control

CC1CC[N-]C(CCC2CC(C)CC[N-]2)C1.CC1CC[N-]C(CCC2CC(C)CC[N-]2)C1.[Ni+2].[O-][Cl+3]([O-])([O-])O (stereo not given)
inactive: dose: 25.0 mg/kg/injection, schedule: Q01DX001 (ip), vehicle: saline 99 % of control | dose: 50.0 mg/kg/injection, schedule: Q01DX001 (ip), vehicle: saline 93 % of control | dose: 100.0 mg/kg/injection, schedule: Q01DX001 (ip), vehicle: saline 108 % of control and 96 % of control

COc1ccccc1N=Nc1cc(S(=O)(=O)O)c2ccccc2c1O
inactive: dose: 25.0 mg/kg/injection, schedule: Q01DX009 (ip), vehicle: saline 89 % of control | dose: 50.0 mg/kg/injection, schedule: Q01DX009 (ip), vehicle: saline 97 % of control | dose: 100.0 mg/kg/injection, schedule: Q01DX009 (ip), vehicle: saline 100 % of control and 117 % of control | dose: 200.0 mg/kg/injection, schedule: Q01DX009 (ip), vehicle: saline 91 % of control

Cc1cc(=O)n2c(nc3cc(Cl)ccc32)s1
inactive: [4] 103 % of control | dose: 100.0 mg/kg/injection, schedule: Q01DX009 (ip), vehicle: Klucel (hydroxypropylcellulose) (HPC) 95 % of control | dose: 200.0 mg/kg/injection, schedule: Q01DX009 (ip), vehicle: Klucel (hydroxypropylcellulose) (HPC) 89 % of control

O=S1(=O)Cc2ccccc21
inactive: dose: 100.0 mg/kg/injection, schedule: Q01DX001 (ip), vehicle: Klucel (hydroxypropylcellulose) (HPC) 92 % of control | dose: 200.0 mg/kg/injection, schedule: Q01DX001 (ip), vehicle: Klucel (hydroxypropylcellulose) (HPC) 98 % of control

Cc1c2oc3c(C)ccc(C(=O)OCCN4CCCCC4)c3nc-2c(C(=O)OCCN2CCCCC2)c(N)c1=O
inactive: dose: 6.25 mg/kg/injection, schedule: Q01DX009 (ip), vehicle: saline with Tween-80 100 % of control | dose: 12.5 mg/kg/injection, schedule: Q01DX009 (ip), vehicle: saline with Tween-80 99 % of control | dose: 25.0 mg/kg/injection, schedule: Q01DX009 (ip), vehicle: saline with Tween-80 107 % of control | dose: 50.0 mg/kg/injection, schedule: Q01DX009 (ip), vehicle: saline with Tween-80 113 % of control

CCCCCn1c(Cl)c(C=O)c2ccccc21
inactive: dose: 100.0 mg/kg/injection, schedule: Q04DX002 (ip), vehicle: Klucel (hydroxypropylcellulose) (HPC) 97 % of control | dose: 200.0 mg/kg/injection, schedule: Q04DX002 (ip), vehicle: Klucel (hydroxypropylcellulose) (HPC) 98 % of control | dose: 400.0 mg/kg/injection, schedule: Q04DX002 (ip), vehicle: Klucel (hydroxypropylcellulose) (HPC) 100 % of control

CNC(=O)OCc1c(COC(=O)NC)c(C)n(-c2ccc3c(c2)OCO3)c1C
inactive: [4] 89 % of control

CC(C)=O
inactive: dose: 2.0 % in 0.5 ml injection vol, schedule: Q01DX009 (ip), vehicle: water 97 % of control | dose: 4.0 % in 0.5 ml injection vol, schedule: Q01DX009 (ip), vehicle: water 100 % of control and 101 % of control | dose: 8.0 % in 0.5 ml injection vol, schedule: Q01DX009 (ip), vehicle: water 102 % of control and 106 % of control | dose: 16.0 % in 0.5 ml injection vol, schedule: Q01DX009 (ip), vehicle: water 105 % of control
